Counter-ions that a name gives are not always drawn. Activity calls are given as the source filed them. No rule for the calls is given here.
Test: Cytotoxicity activity against human HepG2 cells assessed by CellTiter-Glo luminescent cell viability assay.
Assay type: toxicity, cell-based
Set-up: assay stage confirmatory assay, source tissue liver
Settings: HepG2 cells, read-out: IC50 relative

Compound	CC50
CCCN1C(=O)COc2ccc(-c3csc(NC(=O)CC(C)C)n3)cc21	18 µM (inactive)
CN1CCCC(CNc2ccc3cc(Cl)ccc3n2)C1 (stereo unspecified)	7.9 µM (active)
O=S1(=O)C[C@H](NC2CCCCC2)[C@@H](S(=O)(=O)c2ccc(Cl)cc2)C1	17 µM (active)
Cc1ccc(C(=O)N(CCCN)[C@@H](c2nc3cc(Cl)ccc3c(=O)n2Cc2ccccc2)C(C)C)cc1 [ISPINESIB]	5.5 µM (active)
COc1cc(OC2CCN(C)CC2)ccc1Nc1ncc2c(n1)n(C1CCCC1)c(=O)n2C	5 µM (active)
O=C(Nc1cccc(C(F)(F)F)c1)Nc1cc(S(=O)(=O)NC2CC2)ccc1-c1ccsc1	10.1 µM (active)
Cc1nc[nH]c1CNCCCc1ccc(C(C)C)cc1	13.6 µM (inactive)
CC(C)(CN)c1cccc(-c2cccc(CN)c2)c1	12.3 µM (active)
CC(C)c1cnn2c(NCc3ccccc3)cc(NCCCCCCN)nc12	9.3 µM (active)
O=C1Nc2cc(Cl)ccc2Oc2ccc(S(=O)(=O)N3CCCC3)cc21	6.4 µM (active)
Nc1ncc(-c2ccnc(Nc3ccncc3)n2)c(CC2CC2)n1	7 µM (active)
COc1cc(N2CCC(N)CC2)ccc1Nc1ncc(Cl)c(-c2c[nH]c3ccccc23)n1	4.2 µM (active)
CCn1c(Oc2cccc3cccnc23)nc2c1c(=O)n(C)c(=O)n2C	2.9 µM (active)
COc1cc2c(cc1Cc1cccc(Cl)c1F)c(=O)c(C(=O)O)cn2[C@H](CO)C(C)C	10.2 µM (active)
Clc1cccc(N2CCN(C[C@H]3CCC4(CNC4)O3)CC2)c1	7 µM (active)
CCc1nc(-c2cc(S(=O)(=O)N3CCCC(C(=O)N4CCC(C)CC4)C3)c(C)s2)no1 (stereo unspecified)	7.9 µM (active)
O=C(C1CCCC1)N1CC(Oc2ccc(-c3noc(C4CCOCC4)n3)cc2)C1	3.2 µM (active)
CC(C)n1ncnc1NC(=O)c1cccc(C(F)(F)F)c1O	5.6 µM (active)
CNC(=O)c1cc(Oc2ccccc2N)ccn1	32.7 µM (inactive)
CC(C)(C)Cc1cc(NC(=O)[C@@H]2CCCN2C(=O)c2ccc3c(c2)OCO3)[nH]n1	0.8 µM (active)
Cc1ccc(Nc2nc(N3CCN(CCO)CC3)nc3c2cnn3C)cc1Cl	4.8 µM (active)

Compound	CC50
COc1c(Br)cc(Cl)cc1S(=O)(=O)N1CCC[C@H](N)C1	16.1 µM (inactive)
C[C@H]1CN(CC(=O)Nc2nc3ccc(F)cc3s2)CCN1c1nccn2cnnc12	8 µM (active)
O=C(O)c1ccc2c3c1cccc3c(=O)n1c3ccccc3nc21	3.3 µM (active)
Cc1ccc(CC(=O)N2CCN(C(=O)[C@@H]3CCCCO3)CC2)cc1	0.6 µM (active)
Cc1cccnc1N1CCN(c2cc([C@H]3C[C@@H](N)C3)nc(N)n2)CC1	11.1 µM (active)
O=C(Nc1nc(-c2ccccn2)cs1)c1ccc(-n2cncn2)cc1	1.5 µM (active)
O=C(NCc1ccccc1)c1c(O)c2cccnc2n(Cc2ccccc2)c1=O	6.9 µM (active)
CNc1nc2c(=O)[nH]c(N)nc2n1[C@@H]1O[C@H](CO)[C@@H](O)[C@H]1O	11.4 µM (active)
CC[C@H](C)C(=O)O[C@H]1CCC=C2C=C[C@H](C)[C@H](CC[C@@H]3C[C@@H](O)CC(=O)O3)[C@H]21 [MEVASTATIN]	33.3 µM (inactive)
Cc1nc(-c2ccccn2)[nH]c(=O)c1CC(=O)N(C)[C@H]1CCc2ccccc21	6.3 µM (active)
COCC(=O)Nc1ccc(Nc2nc(C)cc(N3CCCC3)n2)cc1	3.6 µM (active)
O=C(CCN1CCC(c2ccccc2)C1)c1ccc2c(c1)OCCO2 (stereo unspecified) [PROROXAN HYDROCHLORIDE]	8.4 µM (active)
O=c1oc(-c2ccccc2)cc(Cl)c1Cl	5.5 µM (active)
CC(=O)N1CCCSc2ccc(S(=O)(=O)N3CCN(c4ccc(F)cc4)CC3)cc21	7.5 µM (active)
CCn1c(=O)c(-c2ccc(-c3cncs3)cc2Cl)cc2cnc(Nc3ccc(N4CCN(C)CC4)cc3)nc21	29 µM (inactive)
O=C(Cc1ccc(-n2cccn2)cc1)Nc1nccs1	0.6 µM (active)
C=CC(=O)Nc1cccc(Oc2nc(Nc3ccc(N4CCN(C)CC4)cc3OC)ncc2Cl)c1	2.2 µM (active)
C#CCC(Cc1cnc2nc(N)nc(N)c2n1)c1ccc(C(=O)N[C@@H](CCC(=O)O)C(=O)O)cc1 (stereo partly specified) [PRALATREXATE]	< 0.1 µM (active)
CC[C@H]1CN2CCc3cc(OC)c(OC)cc3[C@@H]2C[C@@H]1C[C@H]1NCCc2cc(OC)c(OC)cc21 [EMETINE HYDROCHLORIDE]	0.2 µM (active)
COc1ccccc1-c1nnc(-c2ccccc2O)o1	5.3 µM (active)
CC(=O)N1CCCc2cc(S(=O)(=O)N3CCCC(C(=O)N4CCN(c5ccccc5)CC4)C3)ccc21 (stereo unspecified)	12.7 µM (inactive)
O=C1C=C(N(CCO)Cc2ccccc2)c2ccccc2C1=O	4.4 µM (active)

Compound	CC50
C[C@H](O)CN1CCC(CNCc2cccc(Br)c2)CC1	9.4 µM (active)
CC(C)c1cc(C(=O)NCc2ccc(N3CCO[C@@H](C)C3)nc2)n[nH]1	4.8 µM (active)
C[C@@H]1CCCN1CCc1cc2cc(-c3ccc(C#N)cc3)ccc2o1	6.1 µM (active)
CCN1CCN(c2ncc(C(=O)Nc3ccc(Br)cc3)c(C)n2)CC1	13.8 µM (inactive)
Fc1ccc2[nH]c(CCNc3ncc(Br)cn3)nc2c1	5.1 µM (active)
OC(CN1CCC(Cc2ccc(F)cc2)CC1)c1ccc(Cl)cc1 (stereo unspecified) [ELIPRODIL]	50 µM (inactive)
O=C(Cn1ncc(Cl)c(Cl)c1=O)N1CCC[C@H]1c1ccc2c(c1)OCCCO2	7.1 µM (active)
Clc1ccc(CSC(Cn2ccnc2)c2ccc(Cl)cc2Cl)cc1 (stereo unspecified) [SULCONAZOLE NITRATE]	14.9 µM (inactive)
Cc1csc(CCNc2cc(N3CCC[C@@H]3CO)ncn2)n1	2.4 µM (active)
CCN1CCN(C(c2ccc(C(F)(F)F)cc2)c2ccc3cccnc3c2O)CC1 (stereo unspecified)	4.1 µM (active)
CS(=O)(=O)c1cccc(CNc2nc(Nc3ccc4c(c3)CCC(=O)N4)ncc2C(F)(F)F)c1	7.8 µM (active)
COc1cc2ncnc(-n3nc(-c4ccccn4)nc3N)c2cc1OC	1.5 µM (active)
CCC[C@]1(C)NC(=O)N(Cc2cc(-c3ccccc3)on2)C1=O	2.4 µM (active)
COc1cc(C[C@H]2C(=O)OC[C@@H]2Cc2ccc(OC)c(OC)c2)ccc1O [ARCTIGENIN]	2.6 µM (active)
CC1(C)CC[C@H](CO)N(CCS(=O)(=O)c2ccc(C#N)cc2)C1	11.7 µM (active)
CN(C)c1cc(CNCc2cccc(OCc3ccccn3)c2)ccn1	15.3 µM (inactive)
COc1cc2c(cc1OC)CN(CCc1ccc(NC(=O)c3cc(OC)c(OC)cc3NC(=O)c3cnc4ccccc4c3)cc1)CC2	27.3 µM (inactive)
Cc1sc2c(c1C)C(c1ccc(Cl)cc1)=N[C@@H](CC(=O)OC(C)(C)C)c1nnc(C)n1-2	1.2 µM (active)
CCn1c(=O)c(C(=O)Nc2cccc(OC)c2)c(O)c2ccccc21	2.4 µM (inactive)
COc1ccc(-c2noc(N3CCC(C(=O)N4CCN(c5ccccc5OC)CC4)CC3)n2)cc1	8 µM (active)
Fc1cccc(OC2CCN(C[C@H]3[C@@H]4CNC[C@@H]43)CC2)c1	7.9 µM (active)
CCCCC(=O)Nc1ccc(Nc2nc(C)cc(N3CCOCC3)n2)cc1	10.1 µM (active)

Reference: ChEMBL document CHEMBL5303711, “ECBD screening data for assay EOS300108” (2023)
